Data reported in ChEMBL document CHEMBL1141254, “Daphnimacropodines A-D, alkaloids from Daphniphyllum macropodum” (J Nat Prod, 2007).
Active and inactive are the calls of the source.

What was measured:
Format in all cases: functional, cell-based
Platelet [1] = assay: Inhibition of PAF-induced platelet aggregation
Platelet [2] = assay: Inhibition of ADP-induced platelet aggregation
Platelet [3] = assay: Inhibition of AA-induced platelet aggregation

Measured: Activity

C[C@@H]1CN(C=O)[C@H]2[C@@H]1CC[C@]13COC(=O)CC[C@]21C1=CCC[C@@H]1CCC3=O
inactive: Platelet [1] | Platelet [2] | Platelet [3]

C[C@@H]1CN2C(=O)CC[C@@]34C5=CCC[C@@H]5CCC5[C@H](O)OC[C@]53CC[C@H]1[C@H]24 (some centres not stated)
inactive: Platelet [1] | Platelet [2] | Platelet [3]

C[C@@H]1CN(C=O)[C@H]2[C@@H]1CC[C@@]1(CO)C(=O)CC[C@H]3CCC=C3[C@@]21CCC(=O)O
inactive: Platelet [1] | Platelet [2] | Platelet [3]

COC(=O)CC[C@@]12C3=CCC[C@@H]3CC[C@@H]3CN4C[C@@H](C)C(CC[C@@]31CO)C42 (some centres not stated)
inactive: Platelet [1] | Platelet [2] | Platelet [3]
